Measured values as given in article PMC12207590, “Substrate Specificity of the Organic Cation Transporters MATE1 and MATE2K and Functional Overlap with OCT1 and OCT2” (Journal of Medicinal Chemistry, 2025).
Where two headings read alike, the source gives them in different places.

Assays:
MATE2K = MATE2K (Homo sapiens, UniProt Q86VL8); assay: Uptake ratio in MATE2K-overexpressing HEK293 cells vs empty vector (2.5 μM, 1 min, HPLC-MS/MS); assay type: cell-based; details: for MATE2K ratio in this study: Table S1
MATE1 = molecular target: T1, MATE1 (Homo sapiens, UniProt Q96FL8); assay: Uptake ratio in MATE1-overexpressing HEK293 cells vs empty vector (2.5 μM, 1 min, HPLC-MS/MS); assay type: cell-based; details: for MATE1 ratio in this study: Table S1
T1 sequence (Q96FL8 1-570): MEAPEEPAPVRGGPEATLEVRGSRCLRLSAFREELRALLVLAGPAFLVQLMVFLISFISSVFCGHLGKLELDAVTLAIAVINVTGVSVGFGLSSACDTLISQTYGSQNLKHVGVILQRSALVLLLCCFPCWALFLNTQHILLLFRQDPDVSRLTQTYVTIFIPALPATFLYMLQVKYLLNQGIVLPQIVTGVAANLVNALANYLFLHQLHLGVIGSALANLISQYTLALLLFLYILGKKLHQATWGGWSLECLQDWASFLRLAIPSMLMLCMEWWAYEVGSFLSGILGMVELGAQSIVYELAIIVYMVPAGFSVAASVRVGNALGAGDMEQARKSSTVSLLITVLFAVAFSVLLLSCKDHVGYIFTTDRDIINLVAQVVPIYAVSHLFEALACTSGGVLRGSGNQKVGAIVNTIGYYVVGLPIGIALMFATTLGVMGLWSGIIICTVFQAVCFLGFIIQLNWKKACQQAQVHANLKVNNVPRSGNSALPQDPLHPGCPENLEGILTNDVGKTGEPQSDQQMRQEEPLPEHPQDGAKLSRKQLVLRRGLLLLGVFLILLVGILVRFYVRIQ

[1] = fold uptake over empty vector, 2.5 μM, 1 min

Sequence of MATE2K (Q86VL8 1-566 isoform Q86VL8-3): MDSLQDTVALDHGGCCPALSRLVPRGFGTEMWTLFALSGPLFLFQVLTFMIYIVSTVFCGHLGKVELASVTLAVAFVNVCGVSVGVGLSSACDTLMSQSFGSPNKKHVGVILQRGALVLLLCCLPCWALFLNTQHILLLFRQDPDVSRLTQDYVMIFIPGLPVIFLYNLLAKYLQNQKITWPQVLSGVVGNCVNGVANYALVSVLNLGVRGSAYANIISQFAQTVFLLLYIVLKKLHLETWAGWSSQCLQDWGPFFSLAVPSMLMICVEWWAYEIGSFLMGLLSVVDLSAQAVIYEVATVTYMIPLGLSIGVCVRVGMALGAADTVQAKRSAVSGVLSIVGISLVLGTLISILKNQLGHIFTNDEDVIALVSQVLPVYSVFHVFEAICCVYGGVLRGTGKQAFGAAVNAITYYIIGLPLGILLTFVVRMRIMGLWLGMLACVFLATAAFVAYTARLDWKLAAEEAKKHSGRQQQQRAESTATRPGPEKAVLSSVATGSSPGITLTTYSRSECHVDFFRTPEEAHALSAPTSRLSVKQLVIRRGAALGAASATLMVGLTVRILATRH

SMILES	MATE2K ratio (MATE2K; [1])	MATE1 ratio (MATE1; [1])	other results
CC(C)NCC(O)c1ccc(O)c(O)c1 (stereo not shown) [Isoprenaline]	4.67	16.78	–
COc1cc2c(cc1OC)CC(=O)N(CCCN(C)C[C@H]1Cc3cc(OC)c(OC)cc31)CC2 [Ivabradine]	1.23	1.14	–
O=C(C[S+]([O-])Cc1ccco1)NC/C=C\COc1cc(CN2CCCCC2)ccn1 (stereo not shown) [Lafutidine]	1.48	1.41	–
CC1(C)OC[C@@H](COC(=O)CCc2ccc(OC[C@@H](O)CNCCNC(=O)N3CCOCC3)cc2)O1 [Landiolol]	2.87	3.68	–
Nc1cccc2c1CN(C1CCC(=O)NC1=O)C2=O (stereo not shown) [Lenalidomide]	1.53	1.78	–
CC(C)C[C@H](N)C(=O)O [Leucine]	1.06	1.18	–
N[C@@H](Cc1ccc(O)c(O)c1)C(=O)O [Levodopa]	1.01	0.71	–
NCCCC[C@H](N)C(=O)O [Lysine]	–	–	MATE2K ratio (MATE2K): 1.05; MATE1 ratio (MATE1): 1.13
CNCCCC12CCC(c3ccccc31)c1ccccc12 [Maprotiline]	1.04	1.17	–
O=C1CCC[C@@H]2[C@H]3CCCN4CCC[C@@H](CN12)[C@@H]34 [Matrine]	–	–	MATE2K ratio (MATE2K): 1.27; MATE1 ratio (MATE1): 1.03
CNC1(C)C2CCC(C2)C1(C)C (stereo not shown) [Mecamylamine]	1.05	1.20	–
C[N+]1(C)CCCC(OC(=O)C(O)(c2ccccc2)c2ccccc2)C1.[Br-] (stereo not shown) [Mepenzolate]	1.72	23.89	–
C[C@](N)(Cc1ccc(O)c(O)c1)C(=O)O [Methyldopa]	1.15	1.04	–
COC(=O)[C@@H]1[C@H]2CC[C@@H](C[C@@H]1O)N2C [Methylecgonine]	–	–	MATE2K ratio (MATE2K): 1.36; MATE1 ratio (MATE1): 1.54
CN(C)c1ccc2nc3ccc(=[N+](C)C)cc-3sc2c1 [Methylene blue]	–	–	MATE2K ratio (MATE2K): 1.55; MATE1 ratio (MATE1): 2.36
CCNC(C)Cc1ccc2c(c1)OCO2 (stereo not shown) [Methylenedioxyethamphetamine]	–	–	MATE2K ratio (MATE2K): 1.39; MATE1 ratio (MATE1): 1.07
CNC(=O)c1cccnc1 [Methylnicotinamide, N-Methylnicotinamide]	5.40	33.89	MATE2K ratio in this study (MATE2K; 2.5 μM, 1 min): 5.40; MATE1 ratio in this study (MATE1; 2.5 μM, 1 min): 33.89
CC(=O)Oc1c(C)cc(OCC(O)CNC(C)C)c(C)c1C (stereo not shown) [Metipranolol]	1.17	1.21	–
Clc1ccc(COC(Cn2ccnc2)c2ccc(Cl)cc2Cl)c(Cl)c1 (stereo not shown) [Miconazole]	1.50	1.33	–
COc1nc(C)nc(Cl)c1N=C1NCCN1 [Moxonidine]	1.78	2.02	–
CC(=O)N[C@@H](CS)C(=O)O [N-Acetyl-L-cysteine]	0.95	1.02	–
CNCCCC1(c2ccc(F)cc2)OCc2cc(C#N)ccc21 (stereo not shown) [N-Desmethylcitalopram]	–	–	MATE2K ratio (MATE2K): 1.09; MATE1 ratio (MATE1): 1.09
CNCc1ccc(CSCCN/C(=C/[N+](=O)[O-])NC)o1 [N-Desmethylranitidine]	14.02	23.54	–
CNCCc1ccccc1 [N-Methyl-2-phenylethylamine]	1.50	1.27	–
CNCCc1ccc(O)cc1 [N-Methyl-p-Tyramine]	–	–	MATE2K ratio (MATE2K): 1.39; MATE1 ratio (MATE1): 3.11
CNCCc1c[nH]c2ccc(O)cc12 [N-Methylserotonin]	–	–	MATE2K ratio (MATE2K): 8.85; MATE1 ratio (MATE1): 26.34

SMILES	MATE2K ratio (MATE2K; [1])	MATE1 ratio (MATE1; [1])	other results
CN(C)C(N)=NCCC[C@H](N)C(=O)O [NN-Dimethylarginine]	0.93	0.97	–
CC(C)(C)NCC(O)COc1cccc2c1CC(O)C(O)C2 (stereo not shown) [Nadolol]	10.12	9.41	MATE2K ratio in this study (MATE2K; 2.5 μM, 1 min): 10.12; MATE1 ratio in this study (MATE1; 2.5 μM, 1 min): 9.41
CNS(=O)(=O)CCc1ccc2[nH]cc(C3CCN(C)CC3)c2c1 [Naratriptan]	8.34	10.81	–
OC(CNCC(O)C1CCc2cc(F)ccc2O1)C1CCc2cc(F)ccc2O1 (stereo not shown) [Nebivolol]	1.45	1.41	–
CCc1nn(CCCN2CCN(c3cccc(Cl)c3)CC2)c(=O)n1CCOc1ccccc1 [Nefazodone]	1.24	1.34	–
O=C(O)c1cccnc1 [Niacin]	0.90	1.06	–
CNC(=C[N+](=O)[O-])NCCSCc1csc(CN(C)C)n1 [Nizatidine]	10.42	11.88	–
CC(N)Cc1cccc(C(F)(F)F)c1 (stereo not drawn) [Norfenfluramine (+), Norfenfluramine]	–	–	MATE2K ratio (MATE2K): 1.45; MATE1 ratio (MATE1): 1.22
NCC(O)c1cccc(O)c1 (stereo not shown) [Norphenylephrine]	1.22	26.13	–
C[C@@H]1Cc2c(Cl)cc(C(=O)N[C@@H](Cc3ccccc3)C(=O)O)c(O)c2C(=O)O1 [Ochratoxin A]	–	–	MATE2K ratio (MATE2K): 1.28; MATE1 ratio (MATE1): 3.12; substrate of MATE1 (MATE1): substrates of MATE1
NCC(O)c1ccc(O)cc1 (stereo not shown) [Octopamine]	1.43	20.87	–
COc1ccc(CC(C)(C)NC[C@H](O)c2cc(O)cc3c2OCC(=O)N3)cc1 [Olodaterol]	6.19	3.34	–
CCOC(=O)C1=C[C@@H](OC(CC)CC)[C@H](NC(C)=O)[C@@H](N)C1 [Oseltamivir]	1.04	1.18	–
C=CCOc1ccccc1OCC(O)CNC(C)C (stereo not shown) [Oxprenolol]	1.20	1.05	–
Cc1cc(C(C)(C)C)c(O)c(C)c1CC1=NCCN1 [Oxymetazoline]	2.29	5.22	–
CC[N+](C)(CC)CCOC(=O)C(O)(c1ccccc1)C1CCCCC1 (stereo not shown) [Oxyphenonium]	2.04	9.89	–
CC(C)(CO)[C@@H](O)C(=O)NCCC(=O)O [Pantothenic acid]	1.71	1.48	–
CC(=O)Nc1ccc(O)cc1 [Paracetamol]	0.99	1.00	–
OCCN1CCN(CCCN2c3ccccc3Sc3ccc(Cl)cc32)CC1 [Perphenazine]	0.94	1.09	–
NNCCc1ccccc1 [Phenelzine]	1.91	1.58	–
N[C@@H](Cc1ccccc1)C(=O)O [Phenylalanine]	1.01	0.66	–
CNC[C@H](O)c1cccc(O)c1 [Phenylephrine (L), Phenylephrine]	2.15	18.71	–
CNC[C@H](O)c1cccc(O)c1 [Phenylephrine (S), Phenylephrine]	1.44	12.74	–
CC[C@@H]1C(=O)OC[C@@H]1Cc1cncn1C [Pilocarpine]	1.39	1.39	–
O=c1[nH]c2ccccc2n1C1CCN(CCCC(c2ccc(F)cc2)c2ccc(F)cc2)CC1 [Pimozide]	0.76	0.98	–
COc1ccc2[nH]c3c(c2c1)CCNC3 [Pinoline]	–	–	MATE2K ratio (MATE2K): 1.21; MATE1 ratio (MATE1): 1.28
